Results from US20050203061A1, “Prodrug, medicinal utilization thereof and process for producing the same” (priority 2002, published 2005).

What was measured:
[1] = system: tracheal smooth muscle sample of a pig; assay: In vitro inhibition of smooth muscle contraction induced with high concentration of KCl or carbachol; format: cell-based
Description: (§1) The smooth muscle contraction induced in the tracheal smooth muscle sample of a pig with a high concentration of KCl or carbachol is inhibited with an IC50 of about 5 μM. […] In mice, rats, guinea pigs, dogs, and monkeys, as the result of blood analysis after the administration, not less than 99% of the compound was the glucuronic conjugate in any of the animal species.

[2] = Blood analysis after oral administration (glucuronidation); format: in vivo, and monkeys; details: mice, rats, guinea pigs, dogs, monkeys (any species)
Description: as §1

[3] = system: airway pressure of guinea pig sensitized with ovalbumin; assay: Antigen (ovalbumin) induced airway contraction, immediate type asthmatic model, Konzett and Rossler method; format: in vivo; details: for inhibition compared to the control group: 10 min
[4] = system: airway pressure of guinea pig sensitized with ovalbumin; assay: as above; format: in vivo; details: for increase ratio of the airway pressure / inhibition compared to the control group / increase in the airway pressure: 10 min; for inhibition of the immediate type asthmatic reaction (airway contraction): inhalation administration, guinea pigs
Description: In order to examine the bronchodilation effect of the glucuronides of salbutamol and isoprenaline of β2-agonists, an asthmatic model of a guinea pig sensitized with ovalumin was used. The test was conducted in accordance with the method of Konzett and Rossler (Arch. Exp. Pathol. Pharmakol., 195, 71-75, 1940).
On day 1 and day 8 after the initiation of sensitization, 500 μg/0.5 mL of ovalbumin was intramuscularly administered to both legs of a guinea pig and 1.5×10^5 cells/mL/animal of pertussis vaccine was intraperitoneally administered to effect active sensitization. On day 15 after the initiation of sensitization, 10 and 100 μg/site of ovalbumin were intradermally administered to the back of the guinea pig, respectively, to check the state of sensitization. Only the animals which were found positive by the sensitization check 6 hours after the intradermal sensitization were used in the experiment.
As the test substance, a drug solution was atomized by reducing the atomizing amount of an ultrasonic nebulizer to generate an aerosol, and the aerosol was then led into an exposure chamber (M.I.P.S. Co.), sucked at a rate of 3 L/min with the use of an air pump (SPP-3GA, Techno Takatsuki Co.) and administered to the guinea pig for 10 minutes by inhalation 40 minutes before the challenge of ovalbumin.
On day 10 to 23 after the initiation of sensitization, the animals were anesthetized with sodium pentobarbital (50 mg/kg, i.p.), and cannulation was conducted into the trachea. Through the tracheal cannula the animals were connected to an artificial respirator and the change in the ventilation pressure under artificial respiration (a ventilation amount of 10 mL/kg, a ventilation frequency of 50 times/min) was recorded as the airway pressure through a differential pressure transducer (Validyne, Gould Electronics) connected to the tracheal cannula on a recorder (WT-645G, Nihon Koden Co., Ltd.). The airway pressure was measured up to 10 minutes after the administration of ovalbumin. Then, cannulation was conducted into the right and left common carotid veins. From the left cannulation, gallamine (10 mg/mL) in a volume of 1 mL/kg was intravenously administered ([…]) to confirm the disappearance of spontaneous respiration. Thereafter, ovalbumin was intravenously administered to induce an antigen-antibody reaction. The measuring points of the airway pressure were set at a time before induction, and at 1, 3, 5, 7, and 10 minutes after induction. The ratio of the increase in the airway pressure is represented by the percentage of the values obtained by subtracting the observed value before induction from the observed value at each measuring time after induction based on the maximum occlusion at each measuring time.
As the test substances, salbutamol glucuronide and isoprenaline glucuronide were used. The salbutamol glucuronide is a white powder and the isoprenaline glucuronide is a brown crystal and both were stored at −80° C. under protection from light. As the control substances for comparison, each of sulbutamol chloride (hereinafter referred to as sulbutamol) and isoprenaline chloride (hereinafter referred to as isoprenaline) was used. The salbutamol and the isoprenaline are white powders and were stored at room temperature under protection from light. The test substances and the control substances for comparison were weighed in a necessary amount and dissolved in physiological saline (products of Otsuka Pharmaceutical Factory, Inc., Lot Nos. 1D78 and 1E84) to effect the preparation before using. The concentrations of the test substances and the control substances for comparison in solutions were rendered equivalent amounts by molar concentration. All solutions were nearly stable at room temperature for 24 hours.
The obtained experimental results were shown by mean values and standard deviations with airway pressure. As to the test of significance, the Student's t test without any correspondence was conducted when two groups were compared. […]

[5] = system: blood pressure and heart rate; assay: Blood pressure and heart rate after generalized inhalation exposure; format: in vivo, Crj:CD(SD) rats; details: inhalation 10 min; for increase of the heart rate: after five minutes
Description: The test was conducted by using Crj:CD(SD) rats with each group of 6 rats.
Surgery was carried out under the anesthesia of a mixed gas of oxygen, nitrous oxide and isoflurane, and one end of a polyethylene tube (PE50, Becton Dickinson) filled with physiological saline containing heparin (100 U/mL) was inserted into a common carotid artery and indwelled, and the other end was passed through the neighborhood of the neck of the back of the animal and connected to a cannula (Instec Co.) installed at the upper portion of an exposure chamber. This cannula was connected to a pressure transducer (P23XL. Gould Electronics) through a polyethylene tube. Further, the periphery of the polyethylene tube from the back of the rat up to this cannula was passed through a metallic spring to prevent a damage to be caused by the rat.
The administration of the drugs was conducted by preparing an exposure chamber and subjecting the rat with a cannula for measuring blood pressure in the indwelled state in the common cartoid artery to the generaliged inhalation exposure. This method is typically used in the generalized inhalation exposure.
The signals from the pressure transducer (P23XL, Gould Electronics) were led to a pressure processor signal conditioner (Gould Electronics) and recorded on a thermal array recorder (RS3400, Gould Electronics). The blood pressure and the heart rate were continuously recorded from before the initiation of administration to 20 minutes after the completion of administration. The administration of the drugs was initiated when not less than one hour after waking passed and the measurement parameters were stabilized.
Test substances were prepared in the same manner as in Example 1.
The representative values of each group were shown by mean values [[…] (S.E.)]. With the mean values of each group, the test of significance was conducted by the Tukey's multiple test. Further, the significant standard was regarded as 5%.

[6] = inhalation 0.157%, after three minutes
[7] = inhalation 0.1%, three minutes after antigen induction
[8] = 1 mg/L, during 30 minutes of measurement
[9] = inhalation 0.072%, after three minutes
[10] = 5 mg/L, during 30 minutes of measurement

## CCC1Cc2c(O)cc(O)cc2Sc2ccccc21 (stereo not shown) [11-Ethyl-7,9-dihydroxy-10,11-dihydrobenzo[b,f]thiepin]
[1]
  IC50: ~5 µM
[2]
  portion of the compound present as glucuronic conjugate in blood: not less than 99%
[3]; oral administration, 10 mg/kg
  airway contraction inhibition: showed the airway contraction inhibition

## CC(C)NCC(O)c1ccc(O[C@@H]2OC(C(=O)O)[C@@H](O)C(O)C2O)c(O)c1 (stereo partly drawn) [isoprenaline glucuronide, 4-O-(β-D-Glucuronyl)-isoprenaline]
[4]; [6]
  increase ratio of the airway pressure: about 10%
  inhibition compared to the control group: about 77%
[4]
  inhibition of the immediate type asthmatic reaction (airway contraction): significantly inhibit
[5]; 1.57 mg/L
  effect on blood pressure and heart rate: no effect was recognized at all

## CC(C)NCC(O)c1ccc(O)c(O)c1 (stereo not shown) [isoprenaline]
[4]; [7]
  increase in the airway pressure: about 12%
[5]; 1 mg/L
  increase of the heart rate: about 49%
[5]; [8]
  maximum decrease of the blood pressure: 28%
  maximum increase of the heart rate: 50%
[5]; 1 mg/L, five minutes after completion of inhalation
  decrease of the blood pressure vs before the treatment: about 27%
[5]; isoprenaline 1 mg/L, five minutes after completion of inhalation
  blood pressure: 72 mmHg
[3]; [7]
  inhibition compared to the control group: about 73%

## CC(C)(C)NCC(O)c1ccc(O)c(CO[C@@H]2OC(C(=O)O)[C@@H](O)C(O)C2O)c1 (stereo partly drawn) [salbutamol glucuronide, 3-O-(β-D-Glucuronyl)-salbutamol]
[4]; [9]
  increase ratio of the airway pressure: about 20%
[4]
  inhibition of the immediate type asthmatic reaction (airway contraction): significantly inhibit
[5]; 7.2 mg/L
  effect on blood pressure and heart rate: no effect was observed at all
[3]; [9]
  inhibition compared to the control group: about 56%

## CC(C)(C)NCC(O)c1ccc(O)c(CO)c1 (stereo not shown) [salbutamol]
[4]; inhalation 0.05%, 40 min before challenge, three minutes after antigen induction
  increase in the airway pressure: about 3%
[4]; inhalation 0.05%, three minutes after antigen induction
  inhibition compared to the control group: about 92%
[5]; 5 mg/L
  increase of the heart rate: about 36%
[5]; [10]
  maximum blood pressure decrease ratio: 27%
  maximum heart rate increase ratio: 39%
[5]; 5 mg/L, five minutes after completion of inhalation
  decrease of the blood pressure vs before inhalation (pre): about 26%
[5]; salbutamol 5 mg/L, five minutes after completion of inhalation
  blood pressure: 75 mmHg
